Laboratory results taken from patent US9334235B2, “Plasmalogen compounds, pharmaceutical compositions containing the same and methods for treating diseases of the aging” (Phenomenome Discoveries Inc., priority 2008, dated 2016).

Key:
[1] = Oral dosing of rabbits: liver plasmalogens and DHA; assay type: in vivo, New Zealand rabbits; conditions: 200 mg/kg orally; 12, 18, 24 and 48 hours
Description: (§1) Male New Zealand rabbits (1.8-2.5 kg) were orally dosed with PPI-1011, neat in hard gelatin capsules (size 3). For time course studies, rabbits were dosed with 200 mg/kg of PPI-1011 and animals sacrificed via euthenol overdose at 1, 3, 6, 12, 18, 24 and 48 hr. Blood was collected by cardiac puncture and plasma frozen at −70° C. for later analysis. Kidney and liver also were harvested and stored at −70° C. for later analysis. These studies were conducted as 2 experiments with overlapping groups at 12 hrs (Exp. 1: 1, 3, 6, and 12 hrs; Exp. 2: 12, 18, 24 and 48 hrs). Controls were harvested at each timepoint. Plasmalogens and lipids were extracted and analyzed by LC-MS/MS as previously reported (Goodenowe et al., 2007).

[2] = Oral dosing of rabbits: plasma plasmalogens, phosphatidylethanolamines and DHA by LC-MS/MS; assay type: in vivo, New Zealand rabbits
Description: as §1

[3] = Oral dosing of rabbits: kidney plasmalogens and DHA; assay type: in vivo, New Zealand rabbits; conditions: 200 mg/kg orally; 1, 3, 6 and 12 hours
Description: as §1

CHO cells = assay: Plasmalogen analysis by LC-MS/MS in CHO cells incubated with plasmalogen precursors; assay type: cell-based, Chinese hamster; conditions: for DHA plasmalogens in CHO cells: 72 hr, relative to CHO controls; for conversion to PlsEtn species: cells with unimpaired plasmalogen biosynthesis capacity (CHO)
Description: (§2) Chinese hamster ovary (CHO), N-Rel^30 (a mutant CHO cell line deficient in the peroxisomal enzyme dihydroxyacetonephosphate acyltransferase), and human embryonic kidney (HEK293) cells were grown in 10 cm^2 dishes in DMEM/Ham's F12 (1:1) containing 10% FBS. Cells were incubated with plasmalogen precursors dissolved in ethanol (final ethanol concentration of 0.1%) and harvested for plasmalogen analysis by LC-MS-MS^31, and cholesterol and cholesterol ester analyses utilizing a commercial colorimetric kit (BioVision #K613).

HEK293 cells [4] = assay: Cholesterol assay (free/esterified cholesterol) in HEK293 cells; assay type: cell-based, human; conditions: for membrane cholesterol (membrane free cholesterol levels): 20 μM
Description: as §2
(§3) HEK 293 cells, cultured in DMEM, 10% FBS at 37° C., 5% CO2, were seeded the day before the treatment. The following day, cells membranes were loaded with exogenous cholesterol at a concentration of 10 μg/ml media using methyl-β-cyclodextrin as the carrier to deliver cholesterol as described (Rong et al., 2003).
Cells were treated with the plasmalogen precursor PPI-1005 or with ethanol as the control. Cells were harvested after 48 hours using Versene: TryPLe express cocktail, washed with PBS. Lipids were extracted with chloroform containing 1% Triton X-100. The organic fraction was recovered and dried under a stream of nitrogen. The dried lipids were resuspended in cholesterol reaction buffer (Biovision, Mountain View, Calif.), and the total, free and esterified fractions of cholesterol were quantified using the cholesterol quantification kit (Biovision, Mountain View, Calif.) as per the manufacturer's recommendations. Cholesterol was initially calculated as μg/million cells, and reported as a percentage of control conditions for each experiment.

HEK293 cells [5] = assay: Amyloid assay: Aβ secreted into conditioned medium of HEK293 cells (ELISA); assay type: cell-based, human; conditions: for levels of AB-40 / levels of AB-42: normal cells and cholesterol loaded cells
Description: as §3
HEK293 cells were loaded with exogenous cholesterol as described, and treated with a PPI 1005 or with ethanol as a control. Conditioned media from the treated cells was collected at the end of a 48 hour incubation period. For assaying Aβ1-42 content, the conditioned media was enriched using Amicon ultracentrifugal filter devices (Millipore, Billerica, Mass.) prior to loading into the microplate. ELISA was carried out as per the manufacturer's recommendations (Covance Labs, Princeton, N.J.). The reactions were quenched 25 minutes after addition of the substrate, and the absorbance was read at 495 nm. The experiment was carried out in triplicate. Values were calculated as pg/ml of conditioned media, and were normalized to the amount of Aβ detected in the conditioned media from untreated, cholesterol loaded control HEK293 cells.

N-Rel cells [6] = assay: Plasmalogen analysis by LC-MS/MS in N-Rel cells incubated with plasmalogen precursors; assay type: cell-based, Chinese hamster; conditions: for conversion to PlsEtn species: cells with impaired plasmalogen biosynthesis capacity (N-Rel)
Description: as §2

N-Rel cells [7] = assay: Membrane cholesterol and cholesterol ester analysis (colorimetric kit) in N-Rel cells; assay type: cell-based, Chinese hamster; conditions: for membrane cholesterol esters (esterified cholesterol) / membrane free cholesterol: 20 μM, 48 hr incubation; for membrane cholesterol levels: N-Rel cells
Description: as §2

APP = assay: Immunoblotting of APP in HEK293 cells; assay type: cell-based, human; conditions: wild-type HEK293 cells, not loaded with cholesterol
Description: (§4) HEK293 cells were treated as described in the amyloid assay. The cell pellet was washed in PBS and lysed in a RIPA buffer containing a protease inhibitor cocktail (Sigma, St. Louis, […].). Protein in the cell lysate was quantified using the Bio-Rad Protein Assay (Bio-Rad, Hercules, Calif.). The following antibodies were used for western analyses: APP (Calbiochem, Darmstadt, Germany), BACE1 and ADAM10 (Millipore, Temecula, Calif.), sAPPα (IBL, Gunma, Japan), SOAT1 (Santa Cruz Biotechnology Inc., CA), and β-actin (Sigma, St. Louis, […].). Immunoprecipitation was carried out to estimate sAPPα in the conditioned medium. Briefly, antibody to sAPPα was added to conditioned media and incubated for 16 hours at 4° C. IP was carried out by incubating with protein A/G agarose beads for 6 hours at 4° C. Beads were washed with PBS and the eluted proteins were detected by immunoblotting with anti-sAPPα antibody. Band intensities were quantified using Image Processing and Analysis in Java (ImageJ) software (National Institutes of Health, Bethesda, Md.)

SOAT1 = assay: Immunoblotting of membrane-resident protein SOAT1 in HEK293 cells; assay type: cell-based, human
Description: as §4

ADAM10 = assay: Immunoblotting of membrane-resident protein ADAM10 in HEK293 cells; assay type: cell-based, human
Description: as §4

sAPPα = assay: Immunoprecipitation/immunoblot of sAPPα in conditioned medium of HEK293 cells; assay type: cell-based, human; conditions: 20 μM; cholesterol loaded HEK293 cells
Description: as §4

BACE1 = assay: Immunoblotting of BACE1 (β-secretase) in HEK293 cells; assay type: cell-based, human
Description: as §4

[8] = cholesterol loaded HEK293 cells (FIG. 18A)
[9] = wild-type HEK293 cells, not loaded with cholesterol

CC/C=C\C/C=C\C/C=C\C/C=C\C/C=C\C/C=C\CCC(=O)OC(COCCCCCCCCCCCCCCCC)COC(=O)CCCC[C@@H]1CCSS1 (stereo partly drawn) [PPI-1011, (4Z,7Z,10Z,13Z,16Z,19Z)-1-(5-((R)-1,2-dithiolan-3-yl)pentanoyloxy)-3-(hexadecyloxy)propan-2-yl docosa-4,7,10,13,16,19-hexaenoate]
tissue plasmalogens and DHA in rabbit liver [1]: augmentation
new steady-state level of plasma plasmalogens and phosphatidylethanolamines versus dose ([2]; 6 hours after oral doses of 10, 75, 200 mg/kg): dose-dependent manner from 10 to 200 mg/kg
steady-state levels of circulating DHA ([2]; dose of 1000 mg/kg versus 500 mg/kg): did not further increase
steady-state levels of plasmalogens and phosphatidylethanolamines above that obtained with 200 mg/kg ([2]; further increases in dose (500, 1000 mg/kg), 6 hours): did not increase
deacylation at sn-2, releasing docosahexaenoic acid (DHA) ([2]; oral dose of 200 mg/kg): observed
reference phosphatidylethanolamine 16:0/18:0 in plasma ([2]; oral dose of 200 mg/kg): No change
incorporation into circulating plasmalogens ([2]; oral dose of 200 mg/kg, rabbit plasma): incorporated into circulating plasmalogens
oral bioavailability ([2]; rabbit): orally bioavailable
tissue plasmalogens and DHA in rabbit kidney [3]: augmentation

CC/C=C\C/C=C\C/C=C\C/C=C\C/C=C\C/C=C\CCC(=O)OC(COCCCCCCCCCCCCCCCC)COC(=O)CC(C[N+](C)(C)C)OC(C)=O (stereo not shown) [PPI-1009, 2-acetoxy-4-(2-((4Z,7Z,10Z,13Z,16Z,19Z)-docosa-4,7,10,13,16,19-hexaenoyloxy)-3-(hexadecyloxy)propoxy)-N,N,N-trimethyl-4-oxobutan-1-aminium]
DHA plasmalogens in CHO cells (CHO cells): concentration-dependent (72 hr) increase
conversion to PlsEtn species (CHO cells): effectively converted to PlsEtn species
membrane cholesterol levels, concentration response (HEK293 cells [4]; 48 hr incubation): concentration-dependently decrease
basal and cholesterol (25.8 μM)-stimulated Aβ42 secretion (HEK293 cells [5]; 10 μM): acted in a similar manner
levels of AB-40 (HEK293 cells [5]): decreased
levels of AB-42 (HEK293 cells [5]): decreased
time course of incorporation into plasmalogens (N-Rel cells [6]; 10 μM, 0, 6, 12, 24, 48 and 72 hr): incorporation into plasmalogens
cellular levels of chimyl alcohol or the associated alkenyl-acyl-glycerol (N-Rel cells [6]; 10 μM, 0-72 hr, chimyl alcohol by GC-MS): lack of effect
conversion to PlsEtn species (N-Rel cells [6]): effectively converted to PlsEtn species
membrane cholesterol esters (esterified cholesterol) (N-Rel cells [7]): augmentation
membrane free cholesterol (N-Rel cells [7]): most robust decreases
membrane cholesterol levels (N-Rel cells [7]): concentration-dependently decrease

CCC=CCC=CCC=CCC=CCC=CCC=CCCC(=O)OC(CO)COCCCCCCCCCCCCCCCCCC (stereo not shown) [18:0/DHA glycerol]
membrane cholesterol (membrane free cholesterol levels) (HEK293 cells [4]; 48 hr incubation): decrease

CC/C=C\C/C=C\C/C=C\C/C=C\C/C=C\C/C=C\CCC(=O)OC(CO)COCCCCCCCCCCCCCCCC (stereo not shown) [PPI-1005]
DHA plasmalogens in CHO cells (CHO cells): concentration-dependent (72 hr) increase
conversion to PlsEtn species (CHO cells): effectively converted to PlsEtn species
APP abundance (APP): No change
SOAT1 upregulation compared with the cholesterol loaded condition (SOAT1; [8]): approximately 25%
concentration-dependent increase in abundance of SOAT1 (SOAT1; [9]): 50%
membrane cholesterol (membrane free cholesterol levels) (HEK293 cells [4]; 48 hr incubation): decrease
free cholesterol content of the cell membrane (HEK293 cells [4]; cholesterol loaded HEK293 cells, 48 hours): significantly reduced
increase in ADAM10 (ADAM10; [8]): 63%
concentration-dependent increase in abundance of ADAM10 (ADAM10; [9]): 35%
basal and cholesterol (25.8 μM)-stimulated Aβ42 secretion (HEK293 cells [5]; 20 μM): decreases
Aβ42 content in the conditioned medium, drop below cholesterol-loaded levels (HEK293 cells [5]; 20 μM, cholesterol loaded HEK293 cells, 48 hour incubation): 70%
levels of AB-40 (HEK293 cells [5]): decreased
levels of AB-42 (HEK293 cells [5]): decreased
increase in sAPPα species in the conditioned medium (sAPPα): 73%
levels of total DHA plasmalogens in N-Rel cells, relative to control CHO cells (N-Rel cells [6]; 72 hr incubation): restored in a concentration-dependent manner
DHA-PlsEtn level (N-Rel cells [6]; N-Rel cells): 80 % of control values
conversion to PlsEtn species (N-Rel cells [6]): effectively converted to PlsEtn species
β-secretase abundance (BACE1; 20 μM, cholesterol loaded HEK293 cells): restored to normal levels
BACE I abundance (BACE1; [9]): No change
membrane cholesterol esters (esterified cholesterol) (N-Rel cells [7]): increases
membrane free cholesterol (N-Rel cells [7]): decreases
membrane cholesterol levels (N-Rel cells [7]): significant reduction

CCC=CCC=CCC=CCC=CCC=CCC=CCCC(=O)OC(CO)COC(=O)CCCCCCCCCCCCCCC (stereo not shown) [16:0*:DHA glycerol, reference compound]
membrane cholesterol (membrane free cholesterol levels) (HEK293 cells [4]; 48 hr incubation): inactive
membrane free cholesterol (N-Rel cells [7]): inactive

CCCCCCCCCCCCCCCCOCC(O)CO (stereo not shown) [chimyl alcohol, reference compound]
DHA plasmalogens in CHO cells (CHO cells): no effect
DHA-plasmalogens in N-Rel cells (N-Rel cells [6]; expressed relative to N-Rel controls): increased

CC/C=C\C/C=C\C/C=C\C/C=C\C/C=C\C/C=C\CCC(=O)OC(COCCCCCCCCCCCCCCCC)COC(=O)C(CS)NC(C)=O (stereo not shown) [PPI-1014, (4Z,7Z,10Z,13Z,16Z,19Z)-1-(2-acetamido-3-mercaptopropanoyloxy)-3-(hexadecyloxy)propan-2-yl docosa-4,7,10,13,16,19-hexaenoate]
incorporation in N-Rel ethanolamine plasmalogens (PlsEtn) and phosphatidylethanolamines (PtdEtn) (N-Rel cells [6]; 72 hours, 5, 10 and 20 μM): structure-specific and concentration-dependent incorporation
